Numbered stars: 1 amine (or outer) side, 2 acyl side, 3 side chain; on linkers, the order of the positions; unused ones are H or OH. Side chains are listed from the residue outwards. Ends that are not written are not given here. Peptide text beside a SMILES is read from it. * marks the point of attachment. C18 diacid = O=C(O)CCCCCCCCCCCCCCCCC(=O)*; γGlu = O=C(O)[C@H](CCC(=O)[*:2])N[*:1]; AEEA = NCCOCCOCC(=O)O
Key:
isolated ECD (GLP-1R) = details: ref [23],[24]; cited from earlier work
From the text: (§1) GLP-1R, is defined by seven transmembrane helices, an extracellular N terminus, and an intracellular C terminus, which is ligand binding via the extracellular and intracellular face, respectively, belongs to family B1 of the seven-transmembrane G protein-coupled receptors.

full-length GLP-1R = details: ref [23],[24]; cited from earlier work
From the text: as §1

GLP-1R ECD = GLP-1R ECD (Homo sapiens, UniProt P43220); assay: SPR binding affinity for GLP-1R extracellular domain (Biacore 8K); details: Table 1, peptides 01-12
Description: Surface Plasmon Resonance (SPR) measurements were performed with Biacore 8K (GE Health, Boston, MA, USA) for evaluating the associating affinity peptides for GLP1R ECD. Experimental details were carried out according to the Biacore 8K user’s manual.

Mouse GLP-1R = molecular target: T1, Mouse GLP-1R (Mus musculus, UniProt O35659); assay: In vitro GLP-1R activation, mouse receptor; format: cell-based; details: mean ± SD
T1 sequence (O35659 22-463): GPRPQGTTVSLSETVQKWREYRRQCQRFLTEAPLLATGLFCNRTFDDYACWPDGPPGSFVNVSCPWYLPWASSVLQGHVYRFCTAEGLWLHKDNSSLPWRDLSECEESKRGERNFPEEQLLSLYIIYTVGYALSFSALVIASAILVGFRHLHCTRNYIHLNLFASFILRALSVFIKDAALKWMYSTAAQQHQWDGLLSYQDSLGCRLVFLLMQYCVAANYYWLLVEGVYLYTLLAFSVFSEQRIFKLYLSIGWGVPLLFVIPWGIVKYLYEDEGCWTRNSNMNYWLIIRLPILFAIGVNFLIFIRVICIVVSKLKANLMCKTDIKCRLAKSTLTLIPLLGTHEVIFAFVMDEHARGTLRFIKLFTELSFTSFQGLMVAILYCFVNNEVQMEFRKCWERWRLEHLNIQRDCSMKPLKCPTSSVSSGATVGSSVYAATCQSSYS

Human GLP-1R = Human GLP-1R (Homo sapiens, UniProt P43220); assay: In vitro GLP-1R activation, human receptor; format: cell-based; details: mean ± SD
DIO mice [1] = assay: Chronic in vivo study, 4 weeks, DIO mice; details: 25 nmol/kg s.c. once daily for 4 weeks
Description: To further examine the therapeutic potential of PEP20, chronic in vivo studies were performed by a daily subcutaneous (s.c.) injection of PEP20 (25 nmol/kg) in DIO mice for 4 weeks. […] Body weight, food intake, and water consumption were measured daily. DIO mice were subjected to OGTT at week 0 and at week 4 to evaluate the advance of diabetic statuses. HbA1c were measured after the treatment using an AU680 automatic biochemical analyzer (Beckman Coulter, Fullerton, […]).

DIO mice [2] = assay: Hypoglycemic duration test in non-fasted DIO mice; format: in vivo; details: male DIO mice, not fasted, 25 nmol/kg single s.c., n = 6
Description: The antihyperglycemic efficacy of PEP20 was investigated in male DIO mice. The BGLs of PEP20 group decreased rapidly to the normoglycemic state (<15 mmol/L) in 1 h after the administration of 25 nmol/kg. […] BGLs were detected using a one-touch blood glucose meter. Glucose-lowering duration under 8.35 mmol/L BGL was also checked

[3] = system: diet-induced obesity (DIO) mice; assay: Oral glucose tolerance test (glucoregulatory and insulin secretion assay) in DIO mice; format: in vivo; details: male DIO mice, n = 6
Description: Half hour after single dose injection of different samples, the mice were administrated with glucose (2.0 g/kg), and then the blood glucose and insulin levels were detected before and at 15, 30, 45, 60 and 120 min by the ELISA kit (Merck).

Chain of Human GLP-1R (P43220 24-463): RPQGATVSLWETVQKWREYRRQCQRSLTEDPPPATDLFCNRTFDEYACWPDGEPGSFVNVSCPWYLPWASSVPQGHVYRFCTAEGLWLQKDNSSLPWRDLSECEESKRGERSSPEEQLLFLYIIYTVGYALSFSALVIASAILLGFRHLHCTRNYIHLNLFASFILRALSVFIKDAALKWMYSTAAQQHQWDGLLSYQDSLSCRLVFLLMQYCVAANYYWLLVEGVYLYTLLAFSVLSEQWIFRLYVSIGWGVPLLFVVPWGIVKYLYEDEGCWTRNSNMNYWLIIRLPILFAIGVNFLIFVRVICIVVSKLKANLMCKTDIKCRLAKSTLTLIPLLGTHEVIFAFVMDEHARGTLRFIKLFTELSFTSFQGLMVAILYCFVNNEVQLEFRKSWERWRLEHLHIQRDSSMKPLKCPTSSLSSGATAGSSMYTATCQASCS
Chain of GLP-1R ECD (P43220 24-139 limits assumed): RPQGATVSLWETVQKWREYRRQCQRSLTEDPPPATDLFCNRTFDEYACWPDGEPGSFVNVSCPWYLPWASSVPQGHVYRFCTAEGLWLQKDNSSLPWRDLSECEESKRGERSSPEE

Compound	Kd (GLP-1R ECD) [nM]	Emax (Mouse GLP-1R) [%]	Emax (Human GLP-1R) [%]	other results
CC[C@H](C)[C@H](NC(=O)[C@H](Cc1ccccc1)NC(=O)[C@H](CCC(=O)O)NC(=O)[C@H](CCCCN)NC(=O)[C@H](C)NC(=O)[C@H](C)NC(=O)[C@H](CCC(N)=O)NC(=O)CNC(=O)[C@H](CCC(=O)O)NC(=O)[C@H](CC(C)C)NC(=O)[C@H](Cc1ccc(O)cc1)NC(=O)[C@H](CO)NC(=O)[C@H](CO)NC(=O)[C@@H](NC(=O)[C@H](CC(=O)O)NC(=O)[C@H](CO)NC(=O)[C@@H](NC(=O)[C@H](Cc1ccccc1)NC(=O)[C@@H](NC(=O)CNC(=O)[C@H](CCC(=O)O)NC(=O)[C@H](C)NC(=O)[C@@H](N)Cc1c[nH]cn1)[C@@H](C)O)[C@@H](C)O)C(C)C)C(=O)N[C@@H](C)C(=O)N[C@@H](Cc1c[nH]c2ccccc12)C(=O)N[C@@H](CC(C)C)C(=O)N[C@H](C(=O)N[C@@H](CCCCN)C(=O)NCC(=O)N[C@@H](CCCNC(=N)N)C(N)=O)C(C)C [GLP-1, Glucagon-like peptide-1]	–	–	–	IC50 (isolated ECD (GLP-1R)): ~100 nM; IC50 (full-length GLP-1R): ~1 nM
CC(C)C[C@H](NC(=O)[C@H](Cc1ccc(O)cc1)NC(=O)[C@H](C)NC(=O)[C@H](CO)NC(=O)[C@@H]1CCCN1C(=O)[C@H](CO)NC(=O)[C@H](CO)NC(=O)[C@H](Cc1ccc(O)cc1)NC(=O)[C@H](Cc1ccccc1)NC(=O)[C@@H](N)Cc1ccccc1)C(=O)N[C@@H](CCC(=O)O)C(=O)N[C@H](C(=O)O)[C@@H](C)O [PEP01]	740	–	–	–
CC(C)C[C@H](NC(=O)[C@H](Cc1ccc(O)cc1)NC(=O)[C@H](CO)NC(=O)[C@H](CO)NC(=O)[C@@H](NC(=O)CNC(=O)[C@H](CCC(=O)O)NC(=O)[C@H](CO)NC(=O)[C@@H](NC(=O)[C@@H](N)Cc1ccccc1)[C@@H](C)O)[C@@H](C)O)C(=O)N[C@@H](CCC(=O)O)C(=O)N[C@H](C(=O)O)[C@@H](C)O [PEP04]	3990	–	–	–
CC[C@H](C)[C@H](NC(=O)[C@H](Cc1ccccc1)NC(=O)[C@@H](N)CCC(=O)O)C(=O)N[C@@H](C)C(=O)N[C@H](C(=O)N[C@@H](C)C(=O)N[C@@H](Cc1c[nH]c2ccccc12)C(=O)N[C@@H](CC(C)C)C(=O)N[C@H](C(=O)N[C@@H](CCCCN)C(=O)N[C@@H](CCC(N)=O)C(=O)N[C@H](C(=O)O)[C@@H](C)O)C(C)C)[C@@H](C)O [PEP06]	2590	–	–	–
CC(C)C[C@H](NC(=O)[C@H](CCCCN)NC(=O)[C@H](C)NC(=O)[C@H](CO)NC(=O)[C@@H]1CCCN1C(=O)[C@H](CO)NC(=O)[C@H](CO)NC(=O)[C@H](Cc1ccc(O)cc1)NC(=O)[C@H](Cc1ccccc1)NC(=O)[C@@H](N)Cc1ccccc1)C(=O)N[C@@H](CCC(=O)O)C(=O)N[C@H](C(=O)NCC(=O)NCC(=O)N1CCC[C@H]1C(=O)N[C@@H](CO)C(=O)N[C@@H](CO)C(=O)NCC(=O)N[C@@H](C)C(=O)N1CCC[C@H]1C(=O)N1CCC[C@H]1C(=O)N1CCC[C@H]1C(=O)N[C@@H](CO)C(N)=O)[C@@H](C)O [PEP13]	–	110 ± 9.4	96 ± 4.1	EC50 (Mouse GLP-1R): 0.051 ± 0.009 nM; EC50 (Human GLP-1R): 0.064 ± 0.022 nM
C[C@H](NC(=O)[C@H](CO)NC(=O)[C@@H]1CCCN1C(=O)[C@H](CO)NC(=O)[C@H](CO)NC(=O)[C@H](Cc1ccc(O)cc1)NC(=O)[C@H](Cc1ccccc1)NC(=O)[C@@H](N)Cc1ccccc1)C(=O)N[C@@H](Cc1ccc(O)cc1)C(=O)N[C@@H](CCCCN)C(=O)N[C@@H](CCC(=O)O)C(=O)N[C@H](C(=O)NCC(=O)NCC(=O)N1CCC[C@H]1C(=O)N[C@@H](CO)C(=O)N[C@@H](CO)C(=O)NCC(=O)N[C@@H](C)C(=O)N1CCC[C@H]1C(=O)N1CCC[C@H]1C(=O)N1CCC[C@H]1C(=O)N[C@@H](CO)C(N)=O)[C@@H](C)O [PEP14]	–	150 ± 10.9	105 ± 9.2	–
CC(C)C[C@H](NC(=O)[C@H](CCCCNC(=O)COCCOCCNC(=O)COCCOCCNC(=O)CC[C@H](NC(=O)CCCCCCCCCCCCCCCCC(=O)O)C(=O)O)NC(=O)[C@H](C)NC(=O)[C@H](CO)NC(=O)[C@@H]1CCCN1C(=O)[C@H](CO)NC(=O)[C@H](CO)NC(=O)[C@H](Cc1ccc(O)cc1)NC(=O)[C@H](Cc1ccccc1)NC(=O)[C@@H](N)Cc1ccccc1)C(=O)N[C@@H](CCC(=O)O)C(=O)N[C@H](C(=O)NCC(=O)NCC(=O)N1CCC[C@H]1C(=O)N[C@@H](CO)C(=O)N[C@@H](CO)C(=O)NCC(=O)N[C@@H](C)C(=O)N1CCC[C@H]1C(=O)N1CCC[C@H]1C(=O)N1CCC[C@H]1C(=O)N[C@@H](CO)C(=O)O)[C@@H](C)O [PEP17] (H-FFYSSPSAK([AEEA-AEEA-γGlu-C18 diacid])LETGGPSSGAPPPS-OH; N-terminus and C-terminus assumed)	–	68 ± 5.9	79 ± 6.4	–
C[C@H](NC(=O)[C@H](CO)NC(=O)[C@@H]1CCCN1C(=O)[C@H](CO)NC(=O)[C@H](CO)NC(=O)[C@H](Cc1ccc(O)cc1)NC(=O)[C@H](Cc1ccccc1)NC(=O)[C@@H](N)Cc1ccccc1)C(=O)N[C@@H](Cc1ccc(O)cc1)C(=O)N[C@@H](CCCCNC(=O)COCCOCCNC(=O)COCCOCCNC(=O)CC[C@H](NC(=O)CCCCCCCCCCCCCCCCC(=O)O)C(=O)O)C(=O)N[C@@H](CCC(=O)O)C(=O)N[C@H](C(=O)NCC(=O)NCC(=O)N1CCC[C@H]1C(=O)N[C@@H](CO)C(=O)N[C@@H](CO)C(=O)NCC(=O)N[C@@H](C)C(=O)N1CCC[C@H]1C(=O)N1CCC[C@H]1C(=O)N1CCC[C@H]1C(=O)N[C@@H](CO)C(=O)O)[C@@H](C)O [PEP18]	–	78 ± 3.5	78 ± 6.4	–
CC(C)C[C@H](NC(=O)[C@H](Cc1ccc(O)cc1)NC(=O)[C@H](C)NC(=O)[C@H](CO)NC(=O)[C@@H]1CCCN1C(=O)[C@H](CO)NC(=O)[C@H](CO)NC(=O)[C@H](Cc1ccc(O)cc1)NC(=O)[C@H](Cc1ccccc1)NC(=O)[C@@H](N)Cc1ccccc1)C(=O)N[C@@H](CCCCNC(=O)COCCOCCNC(=O)COCCOCCNC(=O)CC[C@H](NC(=O)CCCCCCCCCCCCCCCCC(=O)O)C(=O)O)C(=O)N[C@H](C(=O)NCC(=O)NCC(=O)N1CCC[C@H]1C(=O)N[C@@H](CO)C(=O)N[C@@H](CO)C(=O)NCC(=O)N[C@@H](C)C(=O)N1CCC[C@H]1C(=O)N1CCC[C@H]1C(=O)N1CCC[C@H]1C(=O)N[C@@H](CO)C(=O)O)[C@@H](C)O [PEP19] (H-FFYSSPSAYLK([AEEA-AEEA-γGlu-C18 diacid])TGGPSSGAPPPS-OH; N-terminus and C-terminus assumed)	–	83 ± 3.2	89 ± 6.2	–
CC(C)C[C@H](NC(=O)[C@H](Cc1ccc(O)cc1)NC(=O)[C@H](C)NC(=O)[C@H](CO)NC(=O)[C@@H]1CCCN1C(=O)[C@H](CO)NC(=O)[C@H](CO)NC(=O)[C@H](Cc1ccc(O)cc1)NC(=O)[C@H](Cc1ccccc1)NC(=O)[C@@H](N)Cc1ccccc1)C(=O)N[C@@H](CCC(=O)O)C(=O)N[C@@H](CCCCNC(=O)COCCOCCNC(=O)COCCOCCNC(=O)CC[C@H](NC(=O)CCCCCCCCCCCCCCCCC(=O)O)C(=O)O)C(=O)NCC(=O)NCC(=O)N1CCC[C@H]1C(=O)N[C@@H](CO)C(=O)N[C@@H](CO)C(=O)NCC(=O)N[C@@H](C)C(=O)N1CCC[C@H]1C(=O)N1CCC[C@H]1C(=O)N1CCC[C@H]1C(=O)N[C@@H](CO)C(=O)O [PEP20] (H-FFYSSPSAYLEK([AEEA-AEEA-γGlu-C18 diacid])GGPSSGAPPPS-OH; N-terminus and C-terminus assumed)	–	99 ± 7.2	98 ± 8.1	body weight gain (DIO mice [1]; n = 6): effectively suppressed; decrease of OGTT AUC at 4 weeks compared with week 0 (DIO mice [1]; n = 6): 22.1%; food intake (DIO mice [1]; n = 6): effectively suppressed; HbA1c versus control group (DIO mice [1]; p < 0.001, n = 6): reduction; duration of glucose-lowering effect (DIO mice [2]; followed for 96 h): at least 96 h; lowering of glucose level for 0–96 h (AUC0–96 h) compared with vehicle group (DIO mice [2]): 63.8%; time to normoglycemic state (<15 mmol/L) after administration (DIO mice [2]): ≤ 1 h; plasma insulin concentrations from 15 to 60 min versus control ([3]; OGTT, 25 nmol/kg s.c., ELISA): significantly greater than those of the control group; glucose-lowering percentage compared with vehicle control group ([3]; OGTT, 25 nmol/kg single s.c., glucose 2.0 g/kg): 60.2%; blood glucose level (BGL) half an hour after glucose challenge ([3]; 25 nmol/kg single s.c., oral glucose 2.0 g/kg, vehicle 23.6 ± 3.1): 10.1 mmol/L
FFYSSPSAYLEKGGPSSGAPPPS [PEP16]	–	93 ± 9.3	92 ± 7.1	–
FFYSSPSAYLKTGGPSSGAPPPS [PEP15]	–	73 ± 6.4	78 ± 9.1	–
KQYSSPTAWLVG [PEP03]	1750	–	–	–
